Results as given in publication PMC7996082, “The translocator protein ligands as mitochondrial functional modulators for the potential anti-Alzheimer agents” (Journal of Enzyme Inhibition and Medicinal Chemistry, 2021).

Assays:
[1] = MTT assay: HT22 cell viability with compound alone; assay type: cell-based, mouse; details: mouse, HT22 cells; HT22 cell viability after 24 h of treatment with 5 μM compound, no Aβ
Procedure: To a clear 96-well plate (FALCON), the cultured HT-22 cells were seeded in a number of 5,000 per well 24 h prior to the assay. A solution of each test compound (5 µM, 25 µL) was added to each well. After 24 h of incubation at 37 °C, the cells were treated with a 10 µL of MTT solution (3–(4,5-dimethylthiazol-2-yl)-2,5-diphenyltetrazolium bromide, Sigma-Aldrich), incubated for 2 h at 37 °C, and were treated with 135 µL of MTT solubilising solution (10% Triton-X 100 in isopropanol with 0.1 M HCl) for 2 h at 37 °C. The % values of cell viability were determined by using the optical density (OD) values at 560 nm, and normalised by taking the vehicle control (5 µM of DMSO) as […].

CYP1A2 = target: T1, CYP1A2 (Homo sapiens, UniProt P05177); experiment: CYP inhibition assay (Vivid CYP450 screening kit); assay type: in vitro ADME; details: 10 μM compound
T1 construct: purchased Invitrogen, Madison, WI, USA
T1 sequence (P05177 2-516 limits assumed): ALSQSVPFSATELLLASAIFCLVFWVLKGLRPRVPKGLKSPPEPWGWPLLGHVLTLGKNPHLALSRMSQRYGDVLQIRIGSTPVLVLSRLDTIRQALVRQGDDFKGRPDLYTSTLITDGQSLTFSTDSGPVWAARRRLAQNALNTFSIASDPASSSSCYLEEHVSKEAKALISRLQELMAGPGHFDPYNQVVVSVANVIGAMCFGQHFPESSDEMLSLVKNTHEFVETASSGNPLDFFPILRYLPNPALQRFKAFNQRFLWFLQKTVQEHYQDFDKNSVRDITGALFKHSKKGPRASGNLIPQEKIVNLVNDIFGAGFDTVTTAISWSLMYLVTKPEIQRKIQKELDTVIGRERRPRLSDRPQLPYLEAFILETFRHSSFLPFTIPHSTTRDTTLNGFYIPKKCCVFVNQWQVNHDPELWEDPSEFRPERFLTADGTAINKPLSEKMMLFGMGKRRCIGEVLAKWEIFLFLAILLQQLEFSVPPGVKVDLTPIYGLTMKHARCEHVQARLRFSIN
Procedure: (§1) Human CYP450 (CYP1A2, 2D6, 2C9, 2C19, and 3A4) activities were determined by using the Vivid® CYP450 screening kit (Invitrogen, Madison, WI, USA) in a clear 96-well plate. Five positive controls were used as 10 mM solutions in MeCN for five different CYP450 enzymes: CYP1A2 (α-naphthoflavone), CYP2D6 (quinidine), CYP2C9 (sulfaphenazole), CYP2C19 (lansoprazole), and CYP3A4 (ketoconazole). Each sample (test compounds, positive inhibition controls, and solvent controls) was added into each well with the Master Pre-Mix [CYP450 BACULOSOMES® Reagent (recombinant human CYP450 isozyme and rabbit NADPHP450 reductase) and Regeneration System (3.3 mM glucose-6-phosphate and 0.3 U/ml glucose-6-phosphate dehydrogenase in 100 mM potassium phosphate, pH 8.0)]. The mixture was incubated for 5 min at 37 °C, and the Vivid® CYP substrates and 0.1 mM NADP^+ buffer were added to initiate the CYP450 enzyme reaction. The % remaining activities of CYP450 were measured after 20 min by using a fluorescent plate reader (Flexstation® 3, Molecular Devices, USA).

CYP2C19 = target: T2, CYP2C19 (Homo sapiens, UniProt P33261); experiment: CYP inhibition assay (Vivid CYP450 screening kit); assay type: in vitro ADME; details: 10 μM compound
T2 construct: purchased Invitrogen, Madison, WI, USA
Procedure: as §1

CYP2C9 = target: T3, CYP2C9 (Homo sapiens, UniProt P11712); experiment: CYP inhibition assay (Vivid CYP450 screening kit); assay type: in vitro ADME; details: 10 μM compound
T3 construct: purchased Invitrogen, Madison, WI, USA
Procedure: as §1

CYP2D6 = target: T4, CYP2D6 (Homo sapiens, UniProt P10635); experiment: CYP inhibition assay (Vivid CYP450 screening kit); assay type: in vitro ADME; details: 10 μM compound
T4 construct: purchased Invitrogen, Madison, WI, USA
Procedure: as §1

CYP3A4 = target: T5, CYP3A4 (Homo sapiens, UniProt P08684); experiment: CYP inhibition assay (Vivid CYP450 screening kit); assay type: in vitro ADME; details: 10 μM compound
T5 construct: purchased Invitrogen, Madison, WI, USA
Procedure: as §1

[2] = Liver microsomal stability; assay type: in vitro ADME; details: human, liver microsomes, 1 µM compound, 0.5 mg/mL microsomes, 30 min, 37 °C; read-out: Human Liver Microsomal Stability (% remaining after 30 min)
Procedure: Liver microsomes (human, dog, rat, and mouse; 0.5 mg/mL) were incubated with 1 µM of each test compound in the presence of potassium phosphate buffer (PPB) for 5 min at 37 °C. A solution of the NADPH regeneration system (#44332000, Oriental Yeast Co., Japan) was added to begin metabolic reactions of liver microsomes. The resulting mixtures were incubated for 30 min at 37 °C, and the reaction was terminated by the addition of a cold MeCN solution containing an internal standard (chlorpropamide). The mixture was separated by centrifugation (14,000 rpm for 5 min at 4 °C), and the supernatant was analysed by LC-MS/MS (Shimadzu Nexera XR system and TSQ vantage; Thermo Scientific).

hERG channel = target: T6, hERG channel (Homo sapiens, UniProt Q12809); experiment: hERG inhibition assay (automated patch-clamp, CHO-K1 Tet-On hERG cells); assay type: cell-based; details: patch-clamp, ± SD
T6 construct: host or cells: CHO-K1 Tet-On hERG cells
Procedure: For automated patch-clamp NPC-16 Patchliner (Nanion Technologies, München, Germany) recordings, CHO-K1 Tet-On hERG cells (IonGate Biosciences GmbH, Frankfurt, Germany) were plated into 100-mm cell culture dishes. Whole-cell currents were recorded with the intracellular solution containing: 50 mM KCl, 60 mM KF, 10 mM NaCl, 2 mM MgCl2, 20 mM EGTA and 10 mM HEPES (pH 7.2), and with the extracellular solution containing: 140 mM NaCl, 4 mM KCl, 2 mM CaCl2, 1 mM MgCl2, 5 mM Glucose and 10 HEPES (pH 7.4). To assist stable seal formations, the seal enhancer containing: 80 mM NaCl, 3 mM KCl, 35 mM CaCl2, 10 mM MgCl2 and 10 mM HEPES (pH 7.4) was used only at the seal formation step. Prior to the whole-cell recordings, the external seal enhancing solution was exchanged to the extracellular solution described above. hERG channel currents were recorded using the parallel EPC-10 patch-clamp amplifiers (HEKA Elektronik, Lambrecht/Pfalz, Germany), and low-pass filtered (10 kHz) with a 4-pole Bessel filter. Cell suspension and patch solutions were automatically added onto the four recording wells in the microfabricated disposable chip (NPC-16 Chip, Nanion Technologies, München, Germany). To obtain the inhibitory constants, hERG tail currents were evoked by repolarizing steps to −50 mV for 500 ms preceded by a 500-ms depolarisation potential of +20 mV at a holding potential of −80 mV with a 20-s sweep interval. Whole-cell currents were acquired and digitised at 5 kHz using Patchmaster (HEKA Elektronik, Lambrecht/Pfalz, Germany). The extracellular solution was exchanged to the extracellular solution containing each blocker via four pipette tips of NPC-16 Patchliner using a 4-fold volume of solution (40 µL) with a speed of 4 µL/s, and the exchanged blocker solution was applied for 100–200 s to the patch-clamped cells until blocker binding had reached equilibrium by monitoring hERG tail currents. Whole-cell recordings were analysed using the Patchmaster/Fitmaster (HEKA Elektronik, Lambrecht/Pfalz, Germany), IGOR Pro (WaveMetrics Inc., Portland, OR, USA), and the GraphPad Prism 4.0 (GraphPad Software, Inc., La Jolla, CA, USA) software.

T6 sequence (Q12809 whole entry): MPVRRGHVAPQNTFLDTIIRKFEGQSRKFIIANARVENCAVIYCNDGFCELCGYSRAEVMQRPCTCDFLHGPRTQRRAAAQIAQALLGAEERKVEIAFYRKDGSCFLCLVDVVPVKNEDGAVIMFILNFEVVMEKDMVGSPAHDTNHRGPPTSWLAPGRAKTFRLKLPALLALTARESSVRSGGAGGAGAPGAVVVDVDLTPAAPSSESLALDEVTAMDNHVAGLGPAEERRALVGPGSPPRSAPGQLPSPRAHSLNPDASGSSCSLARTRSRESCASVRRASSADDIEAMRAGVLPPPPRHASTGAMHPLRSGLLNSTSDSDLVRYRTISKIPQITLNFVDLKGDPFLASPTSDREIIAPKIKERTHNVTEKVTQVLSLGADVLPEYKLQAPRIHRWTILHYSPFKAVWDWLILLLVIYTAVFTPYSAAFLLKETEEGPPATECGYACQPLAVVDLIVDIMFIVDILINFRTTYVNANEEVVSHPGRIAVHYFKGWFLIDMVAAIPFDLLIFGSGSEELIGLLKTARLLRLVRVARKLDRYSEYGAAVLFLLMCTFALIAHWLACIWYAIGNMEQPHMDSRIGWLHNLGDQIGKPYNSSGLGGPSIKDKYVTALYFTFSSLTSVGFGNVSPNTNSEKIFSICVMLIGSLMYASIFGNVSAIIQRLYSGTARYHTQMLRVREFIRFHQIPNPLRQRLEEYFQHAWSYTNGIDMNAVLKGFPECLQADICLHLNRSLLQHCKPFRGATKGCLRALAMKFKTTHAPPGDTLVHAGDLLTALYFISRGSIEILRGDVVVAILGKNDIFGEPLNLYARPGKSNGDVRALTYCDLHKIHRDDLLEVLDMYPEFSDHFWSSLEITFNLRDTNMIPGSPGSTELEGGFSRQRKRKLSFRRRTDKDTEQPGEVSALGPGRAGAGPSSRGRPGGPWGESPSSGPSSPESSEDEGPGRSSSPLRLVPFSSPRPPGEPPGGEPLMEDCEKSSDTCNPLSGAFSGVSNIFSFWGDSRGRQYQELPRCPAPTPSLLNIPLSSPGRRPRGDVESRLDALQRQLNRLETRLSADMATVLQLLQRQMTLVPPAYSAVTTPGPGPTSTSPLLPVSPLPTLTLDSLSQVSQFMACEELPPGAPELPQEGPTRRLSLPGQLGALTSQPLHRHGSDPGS
T4 sequence (P10635 whole entry): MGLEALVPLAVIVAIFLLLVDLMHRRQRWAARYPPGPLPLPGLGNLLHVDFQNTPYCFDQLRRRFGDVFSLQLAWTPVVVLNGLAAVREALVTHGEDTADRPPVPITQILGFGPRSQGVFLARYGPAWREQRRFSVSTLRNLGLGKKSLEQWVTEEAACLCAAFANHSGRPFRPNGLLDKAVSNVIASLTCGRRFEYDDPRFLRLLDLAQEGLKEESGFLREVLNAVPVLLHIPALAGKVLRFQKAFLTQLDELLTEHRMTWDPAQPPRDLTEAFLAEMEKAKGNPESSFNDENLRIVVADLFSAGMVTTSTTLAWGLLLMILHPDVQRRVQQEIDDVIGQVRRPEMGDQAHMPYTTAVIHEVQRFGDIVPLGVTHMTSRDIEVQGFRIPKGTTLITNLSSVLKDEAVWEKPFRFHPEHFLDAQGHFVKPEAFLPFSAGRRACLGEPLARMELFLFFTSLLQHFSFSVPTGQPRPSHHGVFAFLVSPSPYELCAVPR
T5 sequence (P08684 2-503 limits assumed): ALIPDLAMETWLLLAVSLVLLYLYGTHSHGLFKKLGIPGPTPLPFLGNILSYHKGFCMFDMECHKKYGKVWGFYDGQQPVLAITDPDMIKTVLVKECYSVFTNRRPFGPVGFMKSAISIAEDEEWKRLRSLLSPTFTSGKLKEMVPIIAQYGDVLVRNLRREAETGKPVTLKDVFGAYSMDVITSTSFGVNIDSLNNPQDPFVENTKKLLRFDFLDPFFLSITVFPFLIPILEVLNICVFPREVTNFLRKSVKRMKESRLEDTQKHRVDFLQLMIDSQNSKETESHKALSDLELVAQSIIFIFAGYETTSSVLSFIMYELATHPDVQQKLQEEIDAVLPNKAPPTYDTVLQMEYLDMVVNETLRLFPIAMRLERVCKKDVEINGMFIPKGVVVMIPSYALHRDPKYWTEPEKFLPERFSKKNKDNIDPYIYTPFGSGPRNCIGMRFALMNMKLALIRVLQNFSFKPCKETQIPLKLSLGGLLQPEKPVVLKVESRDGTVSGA
T2 sequence (P33261 whole entry): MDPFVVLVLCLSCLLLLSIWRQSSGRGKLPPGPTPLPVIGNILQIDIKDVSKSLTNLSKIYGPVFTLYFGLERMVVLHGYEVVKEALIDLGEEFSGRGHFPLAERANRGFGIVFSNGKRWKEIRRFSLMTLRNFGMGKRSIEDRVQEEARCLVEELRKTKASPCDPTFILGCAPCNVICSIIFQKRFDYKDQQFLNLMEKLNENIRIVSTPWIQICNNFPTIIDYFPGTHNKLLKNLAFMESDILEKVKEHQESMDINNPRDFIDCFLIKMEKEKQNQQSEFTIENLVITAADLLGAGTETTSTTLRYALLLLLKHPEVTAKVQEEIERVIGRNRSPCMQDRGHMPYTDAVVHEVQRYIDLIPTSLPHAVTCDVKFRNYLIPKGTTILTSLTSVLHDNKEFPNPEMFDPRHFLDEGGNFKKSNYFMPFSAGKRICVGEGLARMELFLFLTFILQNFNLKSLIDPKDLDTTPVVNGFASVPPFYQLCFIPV
T3 sequence (P11712 whole entry): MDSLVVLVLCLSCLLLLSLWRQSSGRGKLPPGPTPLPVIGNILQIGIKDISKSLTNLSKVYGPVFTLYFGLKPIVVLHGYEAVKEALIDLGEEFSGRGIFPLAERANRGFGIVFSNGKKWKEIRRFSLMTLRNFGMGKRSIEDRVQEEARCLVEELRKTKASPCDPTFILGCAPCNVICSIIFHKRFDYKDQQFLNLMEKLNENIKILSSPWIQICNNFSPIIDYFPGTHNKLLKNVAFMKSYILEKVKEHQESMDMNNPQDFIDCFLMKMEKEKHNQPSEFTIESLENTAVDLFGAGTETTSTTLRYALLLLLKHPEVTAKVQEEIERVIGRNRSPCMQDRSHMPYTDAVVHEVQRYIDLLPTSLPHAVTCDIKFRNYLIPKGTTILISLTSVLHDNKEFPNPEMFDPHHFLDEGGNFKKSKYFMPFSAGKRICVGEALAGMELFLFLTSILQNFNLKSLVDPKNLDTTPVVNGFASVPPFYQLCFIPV

| Compound | viability at 24 h, 5 µM [1] [%] | CYP450 (% remaining Activity at 10 μM) CYP1A2 (CYP1A2) [%] | CYP450 (% remaining Activity at 10 μM) CYP2C19 (CYP2C19) [%] | CYP450 (% remaining Activity at 10 μM) CYP2C9 (CYP2C9) [%] | CYP450 (% remaining Activity at 10 μM) CYP2D6 (CYP2D6) [%] | CYP450 (% remaining Activity at 10 μM) CYP3A4 (CYP3A4) [%] | remaining at 0.5 h, 1 µM [2] [%] | IC50 (hERG channel) [µM] |
| --- | --- | --- | --- | --- | --- | --- | --- | --- |
| CCOc1ccc(-n2c(SCC(=O)N3CCN(Cc4ccccc4)CC3)nc3sc4c(c3c2=O)CCN(C(C)=O)C4)cc1 [Compound 45] | 113 | 110.5 | 23.2 | 14.9 | 107.0 | 89.1 | 4.3 | – |
| CCCN(CCC)C(=O)CSc1nc2sc3c(c2c(=O)n1-c1ccc(OCC)cc1)CCN(C)C3 [Compound 56] | 108 | 71.9 | 30.5 | 44.5 | 89.2 | 30.9 | – | 12.9 ± 3.03 |
| CCOc1ccc(-n2c(SCC(=O)NCc3ccc(Cl)cc3)nc3sc4c(c3c2=O)CCN(C(C)=O)C4)cc1 [Compound 34] | 97 | 160.6 | 56.8 | 32.9 | 92.6 | 15.0 | 0 | 4.13 ± 1.39 |
| CCn1c(SCC(=O)Nc2ccc(OC)c(OC)c2)nc2sc3c(c2c1=O)CCN(C(C)=O)C3 [Compound 58] | 99 | – | – | – | – | – | – | – |
| COc1ccc(NC(=O)CSc2nc3sc4c(c3c(=O)n2CC(C)C)CCN(C(C)=O)C4)cc1OC [Compound 60] | 96 | – | – | – | – | – | – | – |
| CCOc1ccc(-n2c(SCC(=O)N(CC)CC)nc3sc4c(c3c2=O)CCN(C(C)=O)C4)cc1 [Compound 38] | 77 | – | – | – | – | – | – | – |
| CCCCn1c(SCC(=O)Nc2ccc(OC)c(OC)c2)nc2sc3c(c2c1=O)CCN(C(C)=O)C3 [Compound 61] | 97 | – | – | – | – | – | – | – |
| COc1ccc(-n2c(SCC(=O)Nc3ccc(F)c(F)c3)nc3sc4c(c3c2=O)CCN(C(C)=O)C4)cc1 [Compound 27] | 92 | – | – | – | – | – | – | – |
| CCOc1ccc(-n2c(SCC(=O)NCCN3CCCCC3)nc3sc4c(c3c2=O)CCN(C(C)=O)C4)cc1 [Compound 28] | 71 | – | – | – | – | – | – | – |
| CCCCN(CCCC)C(=O)CSc1nc2sc3c(c2c(=O)n1-c1ccc(OCC)cc1)CCN(C)C3 [Compound 57] | 110 | – | – | – | – | – | – | – |
| CCCCN(CCCC)C(=O)CSc1nc2sc3c(c2c(=O)n1-c1ccc(OCC)cc1)CCN(C(C)=O)C3 [Compound 40] | 107 | 103.0 | 57.4 | 33.6 | 79.8 | 38.9 | – | 2.43 ± 0.48 |
| CCOc1ccc(-n2c(SCC(=O)Nc3ccc(Cl)cc3)nc3sc4c(c3c2=O)CCN(C)C4)cc1 [Compound 53] | 89 | – | – | – | – | – | – | – |
| CCOc1ccc(-n2c(SCC(=O)N3CCC(c4ccccc4)CC3)nc3sc4c(c3c2=O)CCN(C(C)=O)C4)cc1 [Compound 46] | 86 | 84.4 | 16.5 | 6.7 | 72.3 | 81.2 | 6.6 | – |
| CCCn1c(SCC(=O)Nc2ccc(OC)c(OC)c2)nc2sc3c(c2c1=O)CCN(C(C)=O)C3 [Compound 59] | 112 | – | – | – | – | – | – | – |
| CCOc1ccc(-n2c(SCC(=O)NCc3ccc(C)cc3)nc3sc4c(c3c2=O)CCN(C)C4)cc1 [Compound 54] | 107 | – | – | – | – | – | – | – |
| CCOc1ccc(-n2c(SCC(=O)Nc3ccc(OC)c(OC)c3)nc3sc4c(c3c2=O)CCN(C)C4)cc1 [Compound 48] | 106 | 35.8 | 20.3 | 33.7 | 57.8 | 20.7 | 63.4 | – |
| COc1ccc(NC(=O)CSc2nc3sc4c(c3c(=O)n2C(C)C)CCN(C(C)=O)C4)cc1OC [Compound 62] | 94 | – | – | – | – | – | – | – |
| CCOc1ccc(-n2c(SCC(=O)N3CCC(Cc4ccccc4)CC3)nc3sc4c(c3c2=O)CCN(C(C)=O)C4)cc1 [Compound 47] | 94 | 81.5 | 15.0 | 15.6 | 64.0 | 66.2 | 2.2 | – |
| CCCN(CCC)C(=O)CSc1nc2sc3c(c2c(=O)n1-c1ccc(OCC)cc1)CCN(C(C)=O)C3 [Compound 39] | 99 | 143.1 | 64.0 | 61.0 | 95.1 | 51.8 | – | 5.87 ± 1.18 |
| CCCCNC(=O)CSc1nc2sc3c(c2c(=O)n1-c1ccc(OCC)cc1)CCN(C(C)=O)C3 [Compound 43] | 79 | – | – | – | – | – | – | – |
